Measurements from patent US20240279220A1, “INDOLE COMPOUNDS AND METHODS OF USE” (Genzyme Corporation, priority 2021, published 2024).

system: NBD1/3D; assay: Aggregation analysis using differential static light scattering (DSLS), NBD1 thermal stability; assay type: binding, Human; conditions: ΔTagg versus DMSO control; compound at 100 μM
Outline: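 Thermal stabilisation reported as ΔTagg, i.e. aggregation temperature relative to averaged DMSO wells. Tagg came from the inflection of differential static light scattering imaged 25–70 °C while NBD1 (0.2 mg/ml, Tris pH 7.6 buffer containing ATP, MgCl2, DTT, glycerol) was ramped 1 °C/min.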

Row | Structure (SMILES) | DSLS NBD1/3D Human Stability delta-T (° C.) @ 100 (μM)
1 | CC(c1c[nH]c(-c2cc(Oc3c(F)cc4[nH]ccc4c3S(C)(=N)=O)ccc2F)n1)c1cccc(CCC(=O)O)c1F (single isomer, unassigned) [Example 136B, 3-(2-fluoro-3-(1-(2-(2-fluoro-5-((6-fluoro-4-(S-methylsulfonimidoyl)-1H-indol-5-yl)oxy)phenyl)-1H-imidazol-4-yl)ethyl)phenyl)propanoic acid] | A (A: T ≥ 10° C.)
2 | CC(O)(c1cccc(CCC(=O)O)c1)c1cnc(-c2cc(Oc3c(F)cc4[nH]ccc4c3F)ccc2F)[nH]1 (single isomer, unassigned) [Example 216B, 3-(3-(1-(2-(5-((4,6-difluoro-1H-indol-5-yl)oxy)-2-fluorophenyl)-1H-imidazol-5-yl)-1-hydroxyethyl)phenyl) propanoic acid] | A (A: T ≥ 10° C.)
3 | CC(O)(c1cccc(CCC(=O)O)c1)c1c[nH]c(-c2cc(Oc3cc4cc[nH]c4c(F)c3F)ccc2F)n1 (stereo not shown) [Example 198, 3-(3-(1-(2-(5-((6,7-difluoro-1H-indol-5-yl)oxy)-2-fluorophenyl)-1H-imidazol-4-yl)-1-hydroxyethyl)phenyl) propanoic acid] | A (A: T ≥ 10° C.)
4 | Cc1c(Oc2ccc(F)c(-c3ncc(C4(c5cccc(CCC(=O)O)c5)CCOCC4)[nH]3)c2)c(F)cc2[nH]ccc12 [Example 148, 3-(3-(4-(2-(2-fluoro-5-((6-fluoro-4-methyl-1H-indol-5-yl)oxy)phenyl)-1H-imidazol-5-yl)tetrahydro-2H-pyran-4-yl)phenyl)propanoic acid] | A (A: T ≥ 10° C.)
5 | CCCC(O)(c1cccc(CCC(=O)O)c1)c1c[nH]c(-c2cc(Oc3c(F)cc4[nH]ccc4c3C)ccc2F)n1 (stereo not shown) [Example 225, 3-(3-(1-(2-(2-fluoro-5-((6-fluoro-4-methyl-1H-indol-5-yl)oxy)phenyl)-1H-imidazol-4-yl)-1-hydroxybutyl)phenyl) propanoic acid] | B (B: 5-10° C.)
6 | CS(=O)(=O)c1c(Oc2cccc(-c3nc(Cc4cccc(CCC(=O)O)c4)co3)c2)c(F)cc2[nH]ccc12 [Example 42, 3-(3-((2-(3-((6-Fluoro-4-(methylsulfonyl)-1H-indol-5-yl)oxy)phenyl)oxazol-4-yl)methyl)phenyl)propanoic acid] | B (B: 5-10° C.)
7 | O=C(O)/C=C/c1cccc(Cn2ccc(-c3cccc(Oc4ccc5[nH]ccc5c4CO)c3)n2)c1 [Example 9, (E)-3-(3-((3-(3-((4-(Hydroxymethyl)-1H-indol-5-yl)oxy)phenyl)-1H-pyrazol-1-yl)methyl)phenyl)acrylic acid] | B (B: 5-10° C.)
8 | O=C(O)Cc1cccc(Cn2ccc(-c3cccc(Oc4ccc5[nH]ccc5c4CO)c3)n2)c1 [Example 11, 2-(3-((3-(3-((4-(Hydroxymethyl)-1H-indol-5-yl)oxy)phenyl)-1H-pyrazol-1-yl)methyl)phenyl)acetic acid] | B (B: 5-10° C.)
9 | O=C(O)CCc1cccc(C2(c3cnc(-c4cc(Oc5c(F)cc6[nH]ccc6c5F)ccc4F)[nH]3)OCCCO2)c1 [Example 228, 3-(3-(2-(2-(5-((4,6-difluoro-1H-indol-5-yl)oxy)-2-fluorophenyl)-1H-imidazol-5-yl)-1,3-dioxan-2-yl)phenyl)propanoic acid] | A (A: T ≥ 10° C.)
10 | CC(c1cnc(-c2cc(Oc3c(F)cc4[nH]ccc4c3CN3CCCS3(=O)=O)ccc2F)[nH]1)c1cccc(CCC(=O)O)c1F (single isomer, unassigned) [Example 134A, 3-(3-(1-(2-(5-((4-((1,1-dioxidoisothiazolidin-2-yl)methyl)-6-fluoro-1H-indol-5-yl)oxy)-2-fluorophenyl)-1H-imidazol-5-yl)ethyl)-2-fluorophenyl)propanoic acid] | B (B: 5-10° C.)
11 | CO[C@]1(C)C[C@](c2cc(F)cc(CCC(=O)O)c2)(c2cnc(-c3cc(Oc4c(F)cc5[nH]ccc5c4S(C)(=O)=O)ccc3F)[nH]2)C1 [Example 73, 3-(3-fluoro-5-((1s,3s)-1-(2-(2-fluoro-5-((6-fluoro-4-(methylsulfonyl)-1H-indol-5-yl)oxy)phenyl)-1H-imidazol-5-yl)-3-methoxy-3-methylcyclobutyl)-phenyl)propanoic acid] | A (A: T ≥ 10° C.)
12 | O=C(O)CCc1cccc(Cn2ccc(-c3cccc(Oc4ccc5[nH]ccc5c4CO)c3)n2)c1 [Example 10, 3-(3-((3-(3-((4-(Hydroxymethyl)-1H-indol-5-yl)oxy)phenyl)-1H-pyrazol-1-yl)methyl)phenyl)propanoic acid] | B (B: 5-10° C.)
13 | O=C(O)CCc1cccc(Cc2cnc(-c3cc(Oc4c(F)cc5[nH]ccc5c4Cl)ccc3F)[nH]2)c1 [Example 107, 3-(3-((2-(5-((4-chloro-6-fluoro-1H-indol-5-yl)oxy)-2-fluorophenyl)-1H-imidazol-5-yl)methyl)phenyl)propanoic acid] | B (B: 5-10° C.)
14 | CC(c1nnc(-c2cc(Oc3c(F)cc4[nH]ccc4c3F)ccc2F)[nH]1)c1cccc(CCC(=O)O)c1F (single isomer, unassigned) [Example 252B, 3-(3-(1-(5-(5-((4,6-difluoro-1H-indol-5-yl)oxy)-2-fluorophenyl)-4H-1,2,4-triazol-3-yl)ethyl)-2-fluorophenyl)propanoic acid] | C (C: ≤5° C.)
15 | Cc1c(Oc2cccc(-c3ncc(C(C)(O)c4cccc(C5CC5C(=O)O)c4)[nH]3)c2)ccc2[nH]ccc12 (stereo not shown) [Example 222, 2-(3-(1-hydroxy-1-(2-(3-((4-methyl-1H-indol-5-yl)oxy)phenyl)-1H-imidazol-5-yl)ethyl)phenyl)cyclopropane-1-carboxylic acid] | B (B: 5-10° C.)
16 | Cc1c(Oc2ccc(F)c(-c3ncc(C(C)c4cccc([C@H]5C[C@@H]5C(=O)O)c4F)[nH]3)c2)c(F)cc2[nH]ccc12 (single isomer, unassigned) [Example 139G, trans-2-(2-fluoro-3-(1-(2-(2-fluoro-5-((6-fluoro-4-methyl-1H-indol-5-yl)oxy)phenyl)-1H-imidazol-5-yl)ethyl)phenyl)cyclopropane-1-carboxylic acid] | C (C: ≤5° C.)
17 | Cc1c(Oc2ccc(F)c(-c3nc(C4(c5cccc(CCC(=O)O)c5)OCCCO4)c[nH]3)c2)c(F)cc2[nH]ccc12 [Example 231, 3-(3-(2-(2-(2-fluoro-5-((6-fluoro-4-methyl-1H-indol-5-yl)oxy)phenyl)-1H-imidazol-4-yl)-1,3-dioxan-2-yl)phenyl)propanoic acid] | A (A: T ≥ 10° C.)
18 | O=C(O)CCc1cccc(C(O)c2c[nH]c(-c3cc(Oc4c(F)cc5[nH]ccc5c4F)ccc3F)n2)c1 (stereo not shown) [Example 177, 3-(3-((2-(5-((4,6-difluoro-1H-indol-5-yl)oxy)-2-fluorophenyl)-1H-imidazol-4-yl)(hydroxy)methyl)phenyl)propanoic acid] | A (A: T ≥ 10° C.)
19 | Cc1c(Oc2cccc(-c3nn(Cc4cccc(CCC(=O)O)c4)cc3F)c2)c(F)cc2[nH]ccc12 [Example 19, 3-(3-((4-Fluoro-3-(3-((6-fluoro-4-methyl-1H-indol-5-yl)oxy)phenyl)-1H-pyrazol-1-yl)methyl)phenyl)propanoic acid] | C (C: ≤5° C.)
